Laboratory results from US7056663B2, “Prognostic methods for breast cancer” (California Pacific Medical Center, priority 2001, dated 2006).

Tested on: TRβ1 gene
Assay: RT-PCR for TRβ1 transcript in breast cancer cell lines after 5-azaC treatment
Assay type: cell-based
Details: MCF7 breast cancer cell line
From the text: The region of most common LOH in the experiments described in Example I include the region of the TRβ1 gene. Therefore, we evaluated TRβ1 gene expression in breast cancer cell lines by RT-PCR, using primers encompassing exons 4–7. The primers used for RT-PCR of the TRβ1 transcript were TRβ-F 5′ […] 3′ (forward) (SEQ ID NO:1) and TRβ-R 5′ TGAGCTCCCATTCCTCGTC 3′ (reverse) (SEQ ID NO:2). Presence of a TRβ1 transcript was indicated by the presence of a 500 bp RT-PCR product using template mRNA isolated from non-cancerous or breast cancer cell lines. As a control, corresponding GAPDH transcript levels for each sample was measured within the same PCR reaction mixture by amplifying a 250 bp fragment using the following primers 5′ […] 3′ (forward) (SEQ ID NO:3) and 5′ […] 3′ (reverse) (SEQ ID NO:4). […] Fluorescent in situ hybribization (FISH) analysis was carried out on the cells to determine the copy number of the TRβ1 gene. FISH data is reported as the percentage of cells in which TRβ1 copy number was fewer than the centromeric signal for chromosome 3. The breast cancer cell lines that were used in this study include DU4475, MDA435, SKBR3, MCF7, BT20, MDA157, MDA231, BT474, CAMA1 and T47D. All of these cell lines are available from American Type Culture Collection, Manassas, Va.

Nc1ncn([C@@H]2O[C@H](CO)[C@@H](O)[C@H]2O)c(=O)n1 [5-azaC]
RT-PCR for TRβ1, before versus after 5-aza C treatment: *RT-PCR for MCF7 was the same before and after 5-aza C treatment
